Patent publication US20040024024A1, “Aromatic sulfone hydroxamates and their use as protease inhibitors” (priority 2001, published 2004)
pKi: −log10 of the molar value.

Target: T1, Human recombinant MMP-9 (Homo sapiens, UniProt P14780)
T1 construct: made in house; host or cells: MMP-9-transfected HT1080 cells (spent media)
Test: In vitro MMP inhibition, Ki determination (fluorogenic substrate II)
Assay type: biochemical
Experimental: Several hydroxamates and salts thereof were analyzed in in vitro assays to determine their ability to inhibit the MMP cleavage of peptide substrates. Inhibition (Ki) and IC50 constants were calculated from the assayed hydroxamate-MMP interactions.
Human recombinant MMP-1, MMP-2, MMP-9, MMP-13, and MMP-14 were used in this assay. All enzymes were prepared in Assignee's laboratories following usual laboratory procedures. Protocols for the preparation and use of these enzymes are available in the scientific literature. See, e.g., Enzyme Nomenclature (Academic Press, San Diego, Calif., 1992) (and the citations therein). See also, Frije et al., J. Biol. Chem., 26(24), 16766-73 (1994).
The MMP-9 proenzyme was purified by gelatin Sepharose chromatography from spent media of MMP-9-transfected HT1080 cells provided by Dr. Howard Welgus of Washington University (St. Louis, Mo.).
All MMPs were activated using 4-aminophenylmercuric acetate (“APMA”, Sigma Chemical, St. Louis, Mo.) or trypsin. MMP-9 also was activated using human recombinant MMP-3 (purified in Assignee's laboratory following standard cloning and purification techniques).
Two fluorogenic, methoxycoumarin-containing polypeptide substrates were used in the MMP inhibition assays:
MCA-ArgProLeuGlyLeuDpaAlaArgGluArgNH2 (II)
Here, “Dpa” is 3-(2,4-dinitrophenyl)-L-2,3-diaminopropionyl group, and “MCA” is 7-methoxycoumarin-4-yl acetyl. Substrate (I) was purchased from Baychem (Redwood City, Calif.), and substrate II was prepared Assignee's laboratory. Substrate I was used in the IC50 determination assays, while substrate II was used in the Ki determination assays. In the absence of MMP inhibitory activity, either substrate is cleaved at the Gly-Leu peptide bond. This cleavage separates the highly fluorogenic peptide from the 2,4-dinitrophenyl quencher, thus resulting in increase of fluorescent intensity.
The stock solutions of the assayed hydroxamates (or salts thereof) were prepared in 1% dimethyl sulfoxide (DMSO). These stock solutions were diluted in Buffer A (100 mM Tris-HCl, 100 mM NaCl, 10 mM CaCl2, 0.05% polyoxyethylene 23 lauryl ether, pH 7.5) to obtain solutions with different hydroxamate concentrations, i.e., assay solutions with different concentrations of the assayed MMP inhibitory compound. The experiment controls contained the same amount of Buffer A/DMSO as the assayed sample, but contained no hydroxamate (or salt thereof).
The assays from which the Ki determinations were made were performed as follows. The assayed hydroxamate samples were incubated in separate wells of untreated white polystyrene plates (Nunc Nalgene International, Rochester, N.Y.), and analyzed on a Tecan SpectraFlour Plus plate reader. The excitation wavelength was 330 nm, and the emission wavelength—420 nm. All samples (assayed hydroxamates and controls) were incubated in separate plate wells at room temperature for 1 hr in the presence of 4 μM of MMP substrate (II). In the absence of MMP inhibitory activity, substrate II was cleaved at the Gly-Leu bond resulting in an increase of relative fluorescence. Inhibition was observed as a reduced rate of this increase in relative fluorescence. The various hydroxamates were analyzed using a single low enzyme concentration with a single substrate concentration fixed at or below the Km. This protocol is a modification of method by Knight et al., FEBS Lett., 296(3), 263-266 (1992). Apparent inhibitory constants were determined by non-linear regression of reaction velocity as a function of inhibitor and enzyme concentration using Morrison's equation, as described by Kuzmic, Anal. Biochem. 286, 45-50 (2000). Modifications were made in the non-linear regression method to allow a common control reaction rate and effective enzyme concentration to be shared between all dose-response relationships on a given assay plate. […]

T1 sequence (P14780 107-707 limits assumed): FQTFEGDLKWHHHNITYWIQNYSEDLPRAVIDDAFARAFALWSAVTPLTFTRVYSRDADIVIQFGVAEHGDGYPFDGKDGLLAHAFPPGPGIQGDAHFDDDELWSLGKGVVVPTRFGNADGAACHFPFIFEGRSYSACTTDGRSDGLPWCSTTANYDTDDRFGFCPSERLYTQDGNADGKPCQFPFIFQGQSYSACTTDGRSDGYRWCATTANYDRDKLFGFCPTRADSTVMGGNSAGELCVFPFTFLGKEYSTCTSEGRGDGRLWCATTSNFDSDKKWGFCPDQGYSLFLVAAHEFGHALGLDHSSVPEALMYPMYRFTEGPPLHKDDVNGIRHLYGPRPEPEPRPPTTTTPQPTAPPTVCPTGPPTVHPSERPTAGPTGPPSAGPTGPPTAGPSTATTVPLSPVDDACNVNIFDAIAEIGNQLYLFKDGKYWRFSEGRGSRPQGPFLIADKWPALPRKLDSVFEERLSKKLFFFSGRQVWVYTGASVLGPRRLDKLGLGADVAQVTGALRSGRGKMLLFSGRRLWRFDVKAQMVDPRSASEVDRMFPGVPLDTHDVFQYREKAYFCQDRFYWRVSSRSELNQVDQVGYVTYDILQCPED

Cc1ccccc1-c1cccc(CCCOc2ccc(S(=O)(=O)C3(C(=O)NO)CCOCC3)cc2)c1 [Example 164]
pKi (value in parenthesis): 5.57

Cc1ccc(-c2cccc(CCCOc3ccc(S(=O)(=O)C4(C(=O)NO)CCOCC4)cc3)c2)cc1C [Example 165]
pKi (value in parenthesis): 5.01

O=C(NO)C1(S(=O)(=O)c2ccc(OCCCc3cncc(Br)c3)cc2)CCOCC1 [Example 522]
pKi (value in parentheses): 6.87

O=C(COc1ccc(S(=O)(=O)C2(C(=O)NO)CCOCC2)cc1)c1cccc(-c2ccccc2)c1 [Example 563]
pKi (value in parentheses): 6.88

O=C(CCCOc1ccc(S(=O)(=O)C2(C(=O)NO)CCOCC2)cc1)Nc1cccc(I)c1 [Example 570]
pKi (value in parentheses): 8.21

O=C(NO)C1(S(=O)(=O)c2ccc(OCCCc3cccc(-n4ccnc4)c3)cc2)CCOCC1 [Example 574]
pKi (value in parentheses): 7.08

O=C(NO)C1(S(=O)(=O)c2ccc(OCCCc3nc(-c4cccnc4)no3)cc2)CCOCC1 [Example 578]
pKi (value in parentheses): 6.24

O=C(NO)C1(S(=O)(=O)c2ccc(OCCCc3nc(-c4ccccc4)no3)cc2)CCOCC1 [Example 584]
pKi (value in parentheses): 7.90

O=C(NO)C1(S(=O)(=O)c2ccc(OCCCc3cccc(-c4ccc(C(F)(F)F)cc4)c3)cc2)CCOCC1 [Example 625]
pKi (value in parentheses): 5.34

O=C(NO)C1(S(=O)(=O)c2ccc(OCCCc3cccc(-c4ccc5c(c4)OCCO5)c3)cc2)CCOCC1 [Example 627]
pKi (value in parentheses): 5.50

O=C(NO)C1(S(=O)(=O)c2ccc(OCCCc3cccc(-c4ccc5ccccc5c4)c3)cc2)CCOCC1 [Example 629]
pKi (value in parentheses): 5.89

O=C(NO)C1(S(=O)(=O)c2ccc(OCCCc3cccc(-c4csc5ccccc45)c3)cc2)CCOCC1 [Example 631]
pKi (value in parentheses): 5.24

O=C(NO)C1(S(=O)(=O)c2ccc(OCCCc3cccc(-c4cc5ccccc5s4)c3)cc2)CCOCC1 [Example 633]
pKi (value in parentheses): 5.17

O=C(NO)C1(S(=O)(=O)c2ccc(OCCCc3cccc(-c4coc5ccccc45)c3)cc2)CCOCC1 [Example 634]
pKi (value in parentheses): 5.89

C=Cc1ccc(-c2cccc(CCCOc3ccc(S(=O)(=O)C4(C(=O)NO)CCOCC4)cc3)c2)cc1 [Example 635]
pKi (value in parentheses): 5.32

O=C(NO)C1(S(=O)(=O)c2ccc(OCCCc3cccc(-c4ccccc4O)c3)cc2)CCOCC1 [Example 636]
pKi (value in parentheses): 6.12

O=C(NO)C1(S(=O)(=O)c2ccc(OCCCc3cccc(-c4cccc5ccccc45)c3)cc2)CCOCC1 [Example 638]
pKi (value in parentheses): 5.06

Cc1ccc(-c2cccc(CCCOc3ccc(S(=O)(=O)C4(C(=O)NO)CCOCC4)cc3)c2)s1 [Example 639]
pKi (value in parentheses): 6.16
